Data as given in patent US11186565B2, “Aromatic compound” (TAKEDA PHARMACEUTICAL COMPANY LIMITED, priority 2017, dated 2021).

Target: T1, human GPR40 (Homo sapiens, UniProt O14842)
T1 construct: expressed in transfected cells
Test: Human GPR40 agonist activity with increase in intracellular Ca2+ concentration as an index
Format: cell-based
Conditions: test compound at final concentration 1 μM; CHO(dhfr−) cells stably expressing human GPR40; FLIPR Ca2+ fluorescence; 100% = 10 μM compound of WO 2015/020184 Example 153, 0% = DMSO
Method: Evaluation of Human GPR40 Agonist Activity with Increase in Intracellular Ca^2+ Concentration as an Index
CHO(dhfr−) cells that stably expressed human GPR40 were suspended in MEMα (Wako Pure Chemical Industries, Ltd.) containing 10% dialyzed serum (Thermo Fisher Scientific), 10 mM HEPES (Thermo Fisher Scientific), 100 U/mL penicillin, 100 μg/mL streptomycin (Wako Pure Chemical Industries, Ltd.), and plated on a 384 well black/clear cell culture plate at 10,000 cells/well. After culture overnight in a CO2 incubator at 37° C., the culture supernatant was removed, and loading buffer [Ca^2+ probe attached to Calcium Kit II-iCellux (DOJINDO) was dissolved in assay buffer (20 mM HEPES, 0.1% fatty acid-free BSA (Wako Pure Chemical Industries, Ltd.), 2.5 mM probenecid (DOJINDO)-containing HESS (Thermo Fisher Scientific))] was added at 30 μL/well. After leaving for 1 hr at room temperature under light shielding, assay buffer containing the test compound at a final concentration of 1 μM was added at 10 μL/well in fluorescence plate reader FLIPR Tetra (Molecular Devices), and the fluorescence amount was successively measured. Human GPR40 agonist activity was calculated using an increase in the intracellular Ca^2+ concentration as an index, wherein the activity of 10 μM of the compound of WO 2015/020184 (Example 153: 3-cyclopropyl-3-(2-((1-(2-((2-fluoro-2-methylpropyl)(4-methylpyridin-2-yl)carbamoyl)-5-methoxyphenyl)piperidin-4-yl)methoxy)pyridin-4-yl)propanoic acid) was 100%, and the activity when DMSO was added instead of the test compound was 0%.

T1 sequence (O14842 whole entry): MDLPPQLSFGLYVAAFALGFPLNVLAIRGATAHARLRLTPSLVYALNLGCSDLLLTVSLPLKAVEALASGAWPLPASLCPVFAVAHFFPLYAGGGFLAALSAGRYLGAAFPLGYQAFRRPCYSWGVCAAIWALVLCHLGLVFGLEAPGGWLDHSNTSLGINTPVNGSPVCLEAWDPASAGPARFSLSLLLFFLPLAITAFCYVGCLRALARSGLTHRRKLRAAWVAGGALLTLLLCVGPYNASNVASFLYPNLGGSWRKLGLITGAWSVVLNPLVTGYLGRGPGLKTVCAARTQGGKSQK

activity (human GPR40 agonist activity) [%] | Structure (SMILES)
106 | COc1cc(N2CCC(COc3cc([C@@H](CC(=O)O)C4CC4)ccn3)CC2)c(NCC(F)(F)C(F)(F)F)cn1 [Example 6, (3S)-3-cyclopropyl-3-(2-((1-(2-methoxy-5-((2,2,3,3,3-pentafluoropropyl)amino)pyridin-4-yl)piperidin-4-yl)methoxy)pyridin-4-yl)propanoic acid]
80 | COc1ccc(-c2ccc(OC)nc2)c(O[C@H]2CC[C@H](Oc3cc(C(CC(=O)O)C4CC4)ccn3)CC2)c1 (stereo partly drawn) [Example 7, 3-cyclopropyl-3-(2-((trans-4-(5-methoxy-2-(6-methoxypyridin-3-yl)phenoxy)cyclohexyl)oxy)pyridin-4-yl)propanoic acid]

Further lines, the molecule ahead of its results:

Structure (SMILES) | activity (human GPR40 agonist activity) [%]
COc1ccc(C2CCN(CC(F)(F)F)CC2)c(O[C@H]2CC[C@H](Oc3cc(C(CC(=O)O)C4CC4)ccn3)CC2)c1 (stereo partly drawn) [Example 1, 3-cyclopropyl-3-(2-((trans-4-(5-methoxy-2-(1-(2,2,2-trifluoroethyl)piperidin-4-yl)phenoxy)cyclohexyl)oxy)pyridin-4-yl)propanoic acid] | 86
COc1ccc(-c2cnc(OCC(F)(F)F)nc2)c(O[C@H]2CC[C@H](Oc3cc(C(CC(=O)O)C4CC4)ccn3)CC2)c1 (stereo partly drawn) [Example 3, 3-cyclopropyl-3-(2-((trans-4-(5-methoxy-2-(2-(2,2,2-trifluoroethoxy)pyrimidin-5-yl)phenoxy)cyclohexyl)oxy)pyridin-4-yl)propanoic acid] | 84
COc1cc(N2CCC(COc3cc([C@@H](CC(=O)O)C4CC4)ccn3)CC2)c(C2CCN(CC(F)(F)F)CC2)cn1 [Example 4, (3S)-3-cyclopropyl-3-(2-((1-(2-methoxy-5-(1-(2,2,2-trifluoroethyl)piperidin-4-yl)pyridin-4-yl)piperidin-4-yl)methoxy)pyridin-4-yl)propanoic acid] | 110
